“Also recorded” adds a separate entry of the source.
Experiments:
σ-1 receptor = σ-1 receptor (Homo sapiens (Human), UniProt Q99720); conditions: literature, cited from earlier work
mouse brain = conditions: mice, literature; cited from earlier work
Swiss Webster mice [1] = assay: Methamphetamine-induced dopamine depletions; assay type: in vivo, mouse; conditions: methamphetamine 5 mg/kg x4 at 2 hr intervals, striatal dopamine one week later
Protocol: Male, Swiss Webster mice were injected (i.p.) with saline or compound (0-20 mg/kg), followed 15 min later with either saline (-METH) or methamphetamine (5 mg/kg) at 2 hr intervals, a total of four times. Striatal dopamine levels were measured one week later.

opioid receptors = assay: Non-σ competition binding, opioid receptors ([3H]bremazocine); conditions: rat brain homogenates
Protocol: (§1) Compounds were tested at various non-σ target sites to evaluate selectivity because cocaine interacts with these sites (dopamine, serotonin and norepinephrine transporters) or historic “sigma” ligands interact with them (opioid, NMDA, dopamine D2, 5-HT2 receptors). The compounds were tested in competition binding assays using rat brain homogenates as previously published. […] The results were reported as Ki in nM.

Swiss Webster mice [2] = assay: Expression of cocaine-induced sensitization; assay type: in vivo, mouse; conditions: compound on Day 15 before cocaine 10 mg/kg i.p.
Protocol: Male, Swiss Webster mice were acclimated as detailed above. For five consecutive days (Days 1-5), the mice were pretreated (i.p) with saline, then challenged 15 min later with cocaine (10 mg/kg, i.p.). The total locomotor activity (ambulatory, fine and rearing movements) of the mice was recorded for the next 30 min. A 10 day drug free period followed and on Day 15, the mice were administered saline (i.p.) or compound (0.1-20 mg/kg), followed 15 min later with cocaine (10 mg/kg, i.p.). Locomotor activity was then recorded for the next 30 min.

Swiss Webster mice [3] = assay: Methamphetamine-induced locomotor activity; assay type: in vivo, mouse; conditions: i.p. pretreatment 15 min before methamphetamine 1 mg/kg i.p.
Protocol: (§2) Male, Swiss Webster mice were acclimated as detailed above. […] The total locomotor activity (ambulatory, fine and rearing movements) of the mice was recorded for the next 30 min as the number of disruptions made by them in the 16×16 photobeam grids surrounding their testing chambers.

Swiss Webster mice [4] = assay: Cocaine-induced locomotor activity; assay type: in vivo, mouse; conditions: i.p. pretreatment 15 min before cocaine 20 mg/kg i.p.
Protocol: Male, Swiss Webster mice were acclimated to the treatment room and then to the chambers of the automated activity monitoring system (San Diego Instruments, San Diego, Calif.). […] The total locomotor activity (ambulatory, fine and rearing movements) of the mice was recorded for the next 30 min as the number of disruptions made by them in the 16×16 photobeam grid of their testing chamber.

Swiss Webster mice [5] = assay: Cocaine-induced convulsions; assay type: in vivo, mouse; conditions: i.p. pretreatment 15 min before cocaine 70 mg/kg i.p.
[6] = Partition coefficient (Log P / Log D), shake-flask n-octanol and water/PBS; assay type: physicochemical; conditions: read-out: experimental Log P O/W±SD
Protocol: Using the Shake-flask method, 47 n-Octanol and water/PBS, pH 7.4 (equal quantity) were added to a glass vial (25 ml). […] Water/PBS, pH 7.4 phase was brought into a vessel together with a Teflon-coated magnetic stirring bar. The n-octanol phase containing the known quantity of test substance was poured very carefully on top of the aqueous phase in order to avoid emulsion formation as far as possible. […] The contents were allowed to separate on standing and then centrifuged. An aliquot of aqueous layer was taken and diluted (1000 times) for quantitative analysis by UPLC/MS/MS.

Swiss Webster mice [7] = assay: In vivo cocaine studies with CM304 (cocaine-induced convulsions); conditions: 0.001-10 mg/kg i.p. 15 min before cocaine 70 mg/kg i.p., hydrochloride
[8] = assay type: in vitro ADME
59 targets (non-sigma) = assay: NovaScreen and in-house profile of 59 targets; assay type: binding; conditions: nine targets
Protocol: Competition binding assays were performed as previously described. Briefly, radioligands were used to tag the targeted sites under standard conditions.

[9] = In vitro half-life in mouse liver microsomes; assay type: in vitro ADME
Protocol: The reaction was initiated by adding cofactors and quenched at designated time points (0, 5, 10, 15, 30, 45, 60 min) by addition of an equal volume of ice-cold acetonitrile (ACN). […].
The basic incubation mixture consisted of 5 mM substrate, 1 mg/mL microsomal protein, 3 mM MgCl2, 1 mM NADP, 5 mM glucose-6-phosphate, 1 IU/mL glucose-6-phosphate dehydrogenase, 100 mM Tris HCl buffer (pH 7.4) in a final volume of 1 mL. The reaction was initiated by adding cofactors and quenched at designated time points (0, 5, 10, 15, 30, 45, 60 min) by addition of an equal volume of ice-cold ACN. The mixture was centrifuged at 3000 rpm for 10 min, and the supernatant was analysed by UPLC/MS/MS.

[10] = Metabolic stability of AZ_66 in rat liver microsomes; assay type: in vitro ADME
Protocol: Metabolic stability of AZ_66 (1 μM) was performed in Ammonium acetate buffer (50 mM, pH 7.4) with Rat liver microsomes (0.5 mg) at 37° C. in 0.5 ml of incubation mixture. The incubation mixture composed of Ammonium acetate buffer (50 mM, pH 7.4), Magnesium chloride (3 mM), NADPH regenerating system consisting of NADP (1 mM), glucose-6-phosphate (5 mM), and glucose-6-phosphate dehydrogenase (1 Unit/mL). The Substrate and microsomes were pre incubated at 37° C. for 5 min before starting the reaction. The reactions were started by the addition of regenerating system and carried out at 37° C. in a shaking water bath for 60 min. The incubations were stopped by adding equal volume of ice cold acetonitrile at predetermined time points (0, 5, 15, 30, 60 min). The samples were centrifuged for 10 min at 4° C. and the supernatant was injected in to UPLC/MS/MS. Control incubation without NADPH was also performed and these served as 100% value. All microsomal incubations were conducted using the same lot of microsomes.
In vitro half-life and CLint: The percent of the parent compound remaining is plotted versus time. The slope of the line gives the rate constant k for the disappearance of parent compound, from which an in vitro t1/2 can be calculated. CLint can be calculated using the following formula
[formula] [V] is the incubation volume in μl and [P] is the amount of microsomal protein in the incubation.

σ-2 receptor = σ-2 receptor (Rattus norvegicus (Rat), UniProt Q5U3Y7); assay: σ-2 receptor binding in rat brain homogenates ([3H]DTG plus (+)-pentazocine); conditions: read-out: Ki (nm) σ2; compound listing tables
Protocol: Compounds were evaluated for σ-1 and σ-2 binding in rat brain homogenates. […] The assays were terminated with ice-cold 10 mM Tris-HCl, pH 8.0, followed by two washes through glass fiber filters that were pre-soaked for at least 30 min in 0.5% polyethyleneimine.

[11] = biological target: σ-1 receptor (CHO cells transfected with σ-1 receptor cDNA) (Homo sapiens (Human), UniProt Q99720); assay: Cell uptake studies in transfected CHO cells; conditions: 120 min
Protocol: Control CHO cells (transfected with a vector not containing the σ-1 receptor gene—to serve as a negative control) and CHO cells transfected with a vector containing σ-1 receptor cDNA (to serve as a positive control for σ-1 receptor expression in cells) were used for the uptake assays. […] The incubated cells were subsequently washed, lysed and counted for radioactivity. All collected data were normalized for amount of protein present in each well.
Cells CHO cells were grown in Ham's F-12 medium. For uptake studies CHO cells were transfected using Lipofectamine 2000 (Invitrogen, Carlsbad, Calif., USA) and either pcDNA (empty vector, negative control) or σ-1 receptor gene (OPRS1, accession number NM_005866.2, OriGene, Rockville, Md., USA) following manufacturers directions. […] Twenty-four hours later, CHO cells were transfected with either 0.8 μg pcDNA (empty vector, control), or 0.8 μg sigma-1 DNA. […] A portion of each lysate (250 μL) was transferred to a glass tube and activity was measured with a Cobra II γ counter (Packard-Perkin Elmer, Waltham, Mass., USA). Protein content from each well was measured by Bradford assay. The same protocol was followed for (+)-[^3H]pentazocine, except the activity was measured with a liquid scintillation counter (Beckman Coulter LS 6500, Brea, Calif., USA).

rat brain = conditions: literature; cited from earlier work
Swiss Webster mice [12] = assay: Development of cocaine-induced sensitization; assay type: in vivo, mouse; conditions: pretreatment Days 1-5, cocaine 10 mg/kg i.p., test Day 15
Protocol: as §2, with “of” for “surrounding”, “chamber on each of the five days. A 10 day drug-free period followed. On Day 15, all of the mice were pre-administered (i.p.) saline followed by cocaine (10 mg/kg, i.p.), and locomotor activity quantified for the next 30 min.” for “chambers.”

NMDA receptors = assay: Non-σ competition binding, NMDA receptors ([3H]TCP); conditions: rat brain homogenates
Protocol: as §1

5-HT2 receptors = 5-HT2 receptors (Rattus norvegicus (Rat), UniProt P14842); assay: Non-σ competition binding, 5-HT2 receptors ([3H]ketanserin); conditions: rat brain homogenates
Protocol: as §1

dopamine D2 receptors = dopamine D2 receptors (Rattus norvegicus (Rat), UniProt P61169); assay: Non-σ competition binding, dopamine D2 receptors ([3H](−)-sulpiride); conditions: rat brain homogenates
Protocol: as §1

Chain of σ-1 receptor (Q99720 whole entry, species assumed): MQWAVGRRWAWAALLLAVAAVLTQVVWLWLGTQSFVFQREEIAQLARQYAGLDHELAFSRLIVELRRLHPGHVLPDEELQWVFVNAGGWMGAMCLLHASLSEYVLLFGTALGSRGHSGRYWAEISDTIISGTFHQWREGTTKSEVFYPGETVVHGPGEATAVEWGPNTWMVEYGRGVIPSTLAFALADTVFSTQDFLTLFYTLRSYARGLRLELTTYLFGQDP
Chain of dopamine D2 receptors (P61169 whole entry): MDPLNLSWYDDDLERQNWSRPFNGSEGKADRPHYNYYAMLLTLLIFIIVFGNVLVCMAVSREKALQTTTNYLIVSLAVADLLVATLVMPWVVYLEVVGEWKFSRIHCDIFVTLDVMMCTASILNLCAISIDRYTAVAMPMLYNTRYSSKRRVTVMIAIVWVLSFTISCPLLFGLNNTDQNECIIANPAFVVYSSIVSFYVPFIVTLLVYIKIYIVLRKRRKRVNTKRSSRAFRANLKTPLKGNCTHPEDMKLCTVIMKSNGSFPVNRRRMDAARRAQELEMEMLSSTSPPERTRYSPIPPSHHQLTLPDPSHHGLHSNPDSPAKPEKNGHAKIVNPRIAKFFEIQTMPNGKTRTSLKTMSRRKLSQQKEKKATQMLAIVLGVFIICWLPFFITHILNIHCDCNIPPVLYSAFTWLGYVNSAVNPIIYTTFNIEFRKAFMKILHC
Chain of 5-HT2 receptors (P14842 whole entry): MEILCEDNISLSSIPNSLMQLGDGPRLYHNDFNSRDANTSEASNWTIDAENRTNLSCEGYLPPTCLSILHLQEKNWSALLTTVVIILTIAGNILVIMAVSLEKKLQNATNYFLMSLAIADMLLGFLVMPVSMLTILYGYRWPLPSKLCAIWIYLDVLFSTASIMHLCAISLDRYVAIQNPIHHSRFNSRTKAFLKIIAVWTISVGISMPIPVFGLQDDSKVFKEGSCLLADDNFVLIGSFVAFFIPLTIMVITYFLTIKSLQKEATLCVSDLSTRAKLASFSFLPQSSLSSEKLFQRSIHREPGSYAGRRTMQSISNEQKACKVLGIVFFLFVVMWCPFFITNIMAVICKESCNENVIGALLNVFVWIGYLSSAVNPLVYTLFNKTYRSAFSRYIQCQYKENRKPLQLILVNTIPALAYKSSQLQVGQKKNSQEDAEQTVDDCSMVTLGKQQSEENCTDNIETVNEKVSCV
Chain of σ-1 receptor (CHO cells transfected with σ-1 receptor cDNA) (Q99720 whole entry): as the sequence (Q99720 whole entry, species assumed) above
Chain of σ-2 receptor (Q5U3Y7 whole entry): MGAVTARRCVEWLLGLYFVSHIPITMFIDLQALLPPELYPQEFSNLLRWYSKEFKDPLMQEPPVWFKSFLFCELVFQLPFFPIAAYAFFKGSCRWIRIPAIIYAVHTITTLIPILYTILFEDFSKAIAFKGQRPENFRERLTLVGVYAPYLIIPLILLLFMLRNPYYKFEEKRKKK

## O=C(Cc1ccccc1F)NC1CCN(Cc2ccc([18F])cc2)CC1 [[^18F]FBFPA, N-[^18F]4′-fluorobenzylpiperidin-4yl-(2-fluorophenyl) acetamide, reference compound]
σ-1 receptor
  affinity for σ-2 receptor/σ-1 receptor (reported): 44

## [17F]CCC1OC2(CCN(Cc3ccccc3)CC2)c2ccccc21 (stereo not drawn) [[^18F]fluspidine]
Mouse brain
  brain level at 60 minutes post injection relative to maximum (reported): 81 % of its maximum

## S=c1sc2ccccc2n1CCCCN1CCN(C2CCCCC2)CC1 [CM156]
Swiss Webster mice [1]
  attenuation of methamphetamine-induced dopamine depletions (neurotoxic effects): attenuated; also recorded: attenuates methamphetamine-induced dopamine depletions
Opioid receptors
  Ki: > 10000 nM
Swiss Webster mice [2]
  attenuation of expression of cocaine-induced sensitization: significant attenuation; also recorded: attenuates the expression of cocaine-induced sensitization
Swiss Webster mice [3]
  attenuation of methamphetamine-induced locomotor activity: attenuated the locomotor stimulant effects of methamphetamine; also recorded: attenuates methamphetamine-induced locomotor activity
Swiss Webster mice [4]
  attenuation of cocaine-induced locomotor activity: significant attenuation; also recorded: attenuates cocaine-induced locomotor activity
Swiss Webster mice [5]
  attenuation of cocaine-induced convulsions: significant attenuation; also recorded: attenuates the convulsive effects of cocaine

## Cl.O=c1sc2cc(CCCF)ccc2n1CCN1CCCCCC1 [CM304, 3-(2-(azepan-1-yl)ethyl)-6-(3-fluoropropyl)benzo[d]thiazol-2(3H)-one hydrochloride]
[6]
  logP: -0.15 ± 0.05
Swiss Webster mice [7]
  attenuation of cocaine-induced convulsions by CM304: significantly attenuated cocaine-induced convulsions at all doses examined
[8]
  clearance in rat liver microsomes: 0.18 mL/min/g
59 targets (non-sigma); 100 nM screening concentration
  displacement of the radioligand at 100 nM: < 20%
59 targets (non-sigma); 10,000 nM screening concentration
  displacement of the radioligand at 10,000 nM: > 50%
[9]
  clearance in mouse liver microsomes: 0.55 mL/min/g
[9]; mouse, microsomes, pH 7.4
  half-life at 5 mM: 4.2 min

## CC(CCCn1c(=O)sc2cc(F)ccc21)N1CCN(C2CCCCC2)CC1 (stereo not drawn) [AZ-66]
[10]; AZ_66 1 μM, rat
  CLint whole liver: 0.002434 L/min
[10]; pH 7.4, rat liver microsomes, 1 μM, 0-30 min linear part, read-out: estimated t1/2 for disappearance
  half-life at 1 μM: 116 ± 15 min
[10]; rat liver microsomes, 60 min
  added substrate metabolized by 60 min: about 25%
[10]; rat, rat liver microsomes, pH 7.4, read-out: estimated CLint from microsomes
  microsomal CLint at 1 μM: 6 µL/min/mg
σ-2 receptor
  Ki: 1.76 ± 0.34 nM

## CCCc1ccc2c(c1)sc(=O)n2CCN1CCCCC1 [SN56]
σ-1 receptor
  Selectivity Ratio for the σ-1 receptor (reported): > 1000
σ-1 receptor; read-out: Ki at σ-1 receptor (reported)
  Ki: 0.56 nM

## O=c1sc2cc(CCC[18F])ccc2n1CCN1CCCCCC1 [[^18F]FTC-146, 6-(3-fluoropropyl)-3-(2-(azapan-1-yl)ethyl)benzo[d]thiazol-2(3H)-one]
[11]
  uptake in cells transfected with σ-1 receptor cDNA versus control CHO cells: 4 fold

## COc1cc(CCN2CCN(CCCc3ccccc3)CC2)ccc1OC[18F] [[^18F]FM-SA4503]
Mouse brain
  time of maximum uptake in the brain: 30 minutes post injection

## N#Cc1ccc(OCC2CCN(CC[18F])CC2)cc1 [[^18F]SFE]
Rat brain
  reduction in peak uptake in rat brain over a 90 min period: 40%

## CC(=O)c1ccc2c(c1)oc(=O)n2CCCCN1CCN(c2ccc(F)cc2)CC1.Cl.Cl [SN-79]
Swiss Webster mice [12]
  attenuation of development of cocaine-induced sensitization: significant attenuation; also recorded: attenuates the development of cocaine-induced sensitization
Opioid receptors
  Ki: > 10000 nM
NMDA receptors
  Ki: > 10000 nM
Swiss Webster mice [2]
  attenuation of expression of cocaine-induced sensitization: attenuates the expression of cocaine-induced sensitization
Swiss Webster mice [4]
  attenuation of cocaine-induced locomotor activity: significant attenuation; also recorded: attenuates cocaine-induced locomotor activity
Swiss Webster mice [5]
  attenuation of cocaine-induced convulsions: significant attenuation; also recorded: attenuates the convulsive effects of cocaine
5-HT2 receptors
  Ki: 320 ± 16 nM
Dopamine D2 receptors
  Ki: > 10000 nM
